Where “and” joins values, the source holds several entries; their conditions need not be identical. Identical values can stand only once. Inconclusive results and toxic doses are left out. How the source made its calls: active means survival T/C of 150% or more; inactive means T/C below 125% in these data.
Tested on: P388 leukemia ip, CD2F1 mice, survival T/C
Assay: NCI In Vivo Anticancer Drug Screen. Data for tumor model P388 Leukemia (intraperitoneal) in CD2F1 (CDF1) mice
Details: endpoint: median survival time, higher = longer survival
Method in brief: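 Mice carrying the transplanted tumor received test compound or vehicle. Survival was recorded in each group, and the value is the treated-group measurement divided by that of the vehicle-treated control group.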

[1] = dose: 50.0 mg/kg/injection, schedule: Q01DX005 (ip), vehicle: saline
[2] = dose: 50.0 mg/kg/injection, schedule: Q01DX005 (ip), vehicle: saline with Tween-80
[3] = dose: 100.0 mg/kg/injection, schedule: Q01DX005 (ip), vehicle: saline with Tween-80
[4] = dose: 200.0 mg/kg/injection, schedule: Q01DX005 (ip), vehicle: saline with Tween-80
[5] = dose: 12.5 mg/kg/injection, schedule: Q01DX009 (ip), vehicle: Klucel (hydroxypropylcellulose) (HPC)
[6] = dose: 25.0 mg/kg/injection, schedule: Q01DX009 (ip), vehicle: Klucel (hydroxypropylcellulose) (HPC)
[7] = dose: 100.0 mg/kg/injection, schedule: Q01DX009 (ip), vehicle: Klucel (hydroxypropylcellulose) (HPC)

Measured: T/C

CN(C)CN1C(=O)CC(c2ccccc2)C1=O (stereo not given)
inactive: [1] 110 % of control | dose: 100.0 mg/kg/injection, schedule: Q01DX005 (ip), vehicle: saline 107 % of control | dose: 200.0 mg/kg/injection, schedule: Q01DX005 (ip), vehicle: saline 115 % of control

CCCCCCCC/C=C\CCCCCCCCOC(N)=O
inactive: dose: 25.0 mg/kg/injection, schedule: Q04DX003 (ip), vehicle: other 100 % of control | dose: 50.0 mg/kg/injection, schedule: Q04DX003 (ip), vehicle: other 104 % of control | dose: 100.0 mg/kg/injection, schedule: Q04DX003 (ip), vehicle: other 104 % of control

CCC(C)n1c(C)nc2c(N)cc(C(F)(F)F)cc21 (stereo not given)
inactive: [2] 97 % of control | [3] 91 % of control | [4] 102 % of control

O=C(O)c1ccc2ccccc2n1
inactive: dose: 100.0 mg/kg/injection, schedule: Q04DX002 (ip), vehicle: saline 96 % of control | dose: 200.0 mg/kg/injection, schedule: Q04DX002 (ip), vehicle: saline 94 % of control | dose: 400.0 mg/kg/injection, schedule: Q04DX002 (ip), vehicle: saline 104 % of control

CC1(C)CCC2=C(O1)c1ccccc1C(=O)C2=O
inactive: [5] 96 % of control | [6] 105 % of control and 94 % of control | dose: 50.0 mg/kg/injection, schedule: Q01DX009 (ip), vehicle: Klucel (hydroxypropylcellulose) (HPC) 114 % of control and 96 % of control | [7] 115 % of control

c1ccc2c(NC3=NCCO3)c3ccccc3nc2c1
inactive: dose: 3.12 mg/kg/injection, schedule: Q01DX009 (ip), vehicle: Klucel (hydroxypropylcellulose) (HPC) 95 % of control | dose: 6.25 mg/kg/injection, schedule: Q01DX009 (ip), vehicle: Klucel (hydroxypropylcellulose) (HPC) 95 % of control | [5] 103 % of control | [6] 111 % of control

O=C(/C=C/c1ccc(OCc2ccccc2)cc1)c1ccc(C(F)(F)F)cc1
inactive: dose: 12.5 mg/kg/injection, schedule: Q01DX009 (ip), vehicle: saline with Tween-80 94 % of control | dose: 25.0 mg/kg/injection, schedule: Q01DX009 (ip), vehicle: saline with Tween-80 100 % of control | dose: 50.0 mg/kg/injection, schedule: Q01DX009 (ip), vehicle: saline with Tween-80 90 % of control and 93 % of control | dose: 200.0 mg/kg/injection, schedule: Q01DX009 (ip), vehicle: saline with Tween-80 95 % of control

N#CCCCOCCOCCOCC(O)C(O)COCCOCCOCCCC#N (stereo not given)
inactive: dose: 25.0 mg/kg/injection, schedule: Q01DX005 (ip), vehicle: suspension in saline 95 % of control | dose: 50.0 mg/kg/injection, schedule: Q01DX005 (ip), vehicle: suspension in saline 99 % of control | dose: 100.0 mg/kg/injection, schedule: Q01DX005 (ip), vehicle: suspension in saline 96 % of control | dose: 200.0 mg/kg/injection, schedule: Q01DX005 (ip), vehicle: suspension in saline 98 % of control

COc1ccc2c(c1)CCC1C2=CCS1(=O)=O (stereo not given)
inactive: [2] 103 % of control | [3] 94 % of control | [4] 92 % of control

CCn1c(Cl)c(/C=N/NC(N)=S)c2cc(/C=N/NC(N)=S)ccc21
inactive: dose: 100.0 mg/kg/injection, schedule: Q01DX001 (ip), vehicle: Klucel (hydroxypropylcellulose) (HPC) 98 % of control | dose: 200.0 mg/kg/injection, schedule: Q01DX001 (ip), vehicle: Klucel (hydroxypropylcellulose) (HPC) 97 % of control | dose: 400.0 mg/kg/injection, schedule: Q01DX001 (ip), vehicle: Klucel (hydroxypropylcellulose) (HPC) 89 % of control

CC(C)CC(C(=O)O)N(CC(=O)O)CC(=O)O (stereo not given)
inactive: dose: 12.5 mg/kg/injection, schedule: Q01DX005 (ip), vehicle: saline 97 % of control | dose: 25.0 mg/kg/injection, schedule: Q01DX005 (ip), vehicle: saline 87 % of control | [1] 98 % of control

CC(C)(C)OC(=O)C(CC(=O)O)=C(c1ccccc1)c1ccccc1
inactive: [7] 100 % of control | dose: 200.0 mg/kg/injection, schedule: Q01DX009 (ip), vehicle: Klucel (hydroxypropylcellulose) (HPC) 100 % of control | dose: 400.0 mg/kg/injection, schedule: Q01DX009 (ip), vehicle: Klucel (hydroxypropylcellulose) (HPC) 95 % of control

— PubChem BioAssay AID330 (DTP/NCI, 2004)
